Data on one compound can be found in patent US8952033B2, “4-anilinofuro[2,3-b]quinoline derivatives, their preparation processes, and pharmaceutical compositions comprising the same” (Kaohsiung Medical University, priority 2011, dated 2015).

For data set [1], the system named is MCF-7 (breast cancer cell). The data set is described as follows: MTT antiproliferative assay (cell growth %, GI50), MCF-7. In kind it is cell-based. A digest of the protocol:
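Cells exposed to compounds in DMSO or vehicle for 48 hours; MTT (2 mg/mL) added before and after treatment for 2 hours, formazan dissolved in DMSO and OD570 read. GI50 from three determinations, reported as mean±SD.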
(Tetrazolium dyes change colour on reduction, which living cells bring about.)

Data set [2] concerns MRC-5 (human lung fibroblast cell). The data set is described as follows: GI50 determination on normal cell line MRC-5. In kind it is cell-based. Conditions: MRC5, normal cell line, mean±SD, read-out: GI50 MRC-5. As for the experimental part: Antiproliferative activities of the compounds of this invention were evaluated substantially according to the method as described in Tseng, C. […] The cells were treated with the test compounds, i.e., the compounds of this invention (in dimethylsulfoxide (DMSO)), or DMSO for 48 hours.
Before and after the treatment with the test compounds or DMSO, 3-(4,5-dimethylthiazol-2-yl)-2,5-diphenyltetrazolium bromide (MTT, 2 mg/mL, 100 μL) was added to each of the cultures, followed by cultivation for 2 hours. The resultant formazan was dissolved by the addition of DMSO. Absorbance at 570 nm (OD570) was measured using a microtiter plate reader (Dynex MRX-II).
Determination of GI50 was conducted thrice for each test compound. GI50 is expressed as mean±SD.

For data set [3], the system named is RCC 786-O (renal cell carcinoma cell). The data set is described as follows: Preferential antiproliferative activity, RCC 786-O. It is filed as cell-based. As for the experimental part:
(§1) Determination of GI50 of compounds 13a, 13c, 14a, 14c, 15a, 16a was conducted substantially according to the method as described in the preceding section A entitled “Evaluation of antiproliferative activity”, except that the normal cell line MRC-5 was also utilized, and that camptothecin and daunorubicin were tested instead of compounds 1, 2, 3. The concentration of the respective test compound, which can reduce absorbance by 50% (compared with DMSO), is regarded as GI50, and can be determined via dose-response curves. Determination of GI50 was conducted thrice for each test compound. GI50 is expressed as mean±SD.
(§2) SI stands for selectivity index and was calculated by substituting GI50 into the following formula: D=E/F (2) where • D=SI • E=GI50 of the respective test compound for cells of the normal cell line • F=GI50 of the respective test compound for cells of the cancer cell line The experimental results are summarized in Table 4. […]

The test system of data set [4] is PC-3 (human prostate cancer cell). As to the kind of experiment: Preferential antiproliferative activity, PC-3. In kind it is cell-based. As for the experimental part:
as §1, §2

In data set [5] the test system is BT483 (human breast carcinoma cell). As to the kind of experiment: Preferential antiproliferative activity, BT483. It is filed as cell-based. As for the experimental part:
as §1, §2

Data set [6] concerns CE81T (human esophageal carcinoma cell). As to the kind of experiment: Preferential antiproliferative activity, CE81T. In kind it is cell-based. As for the experimental part: as §1, §2
The subject of data set [7] is A549 (human lung adenocarcinoma cell). The data set is described as follows: Preferential antiproliferative activity, A549. It is filed as cell-based. As for the experimental part:
as §1, §2

A further data set has as its system NCI-H611. As to the kind of experiment: Preferential antiproliferative activity, NCI-H611. In kind it is cell-based. As for the experimental part: as §1, §2
A short description of data set [8]: Determination of solubility in water. It is filed as physicochemical. As for the experimental part:
Determination of solubility in water was conducted substantially according to the method as described in Vougogiannopoulou, K. et al. (2008), J. Med. Chem., 51:6421-6431. An excess amount of the respective test compound was added into water, followed by sonication for 5 minutes. The resultant mixture was stirred at ambient temperature (25±0.1° C.) overnight. Centrifugation at 4000 rpm and 25° C. was conducted for 5 minutes. Absorbance of the sample of the respective test compound was measured at 315-420 nm using a UV-VIS spectrophotometer (JASCO UV-Visible V570). For each test compound, a standard curve was generated by plotting concentrations of standard solutions and the corresponding absorbances. The absorbance of the sample of each test compound was then converted to solubility in water (μg/mL) using the corresponding standard curve.

For the next data set, the system named is NCI-H460 cells. The data set is described as follows: In vivo inhibition of lung cancer cells, NCI-H460 tumor in nude mice. Further details: species or system Balb/C athymic nude mice. The conditions noted are these: for Survival rate: Day 80 (control all dead). As for the experimental part:
10^6 NCI-H460 cells were mixed evenly with a proper amount of Matrigel (BD Biosciences). The resultant mixture was injected subcutaneously into each of the nude mice on a dorsal flank close to an upper portion of a hind leg.
The nude mice bearing a tumor were randomly divided into two groups. The first group (n=14) of the nude mice was used to evaluate the effect of compound 13a after intraperitoneal injection, and was further divided into three subgroups including 10 mg/kg group (n=4), 20 mg/kg group (n=6), and a control group (n=4). Compound 13a (in DMSO/Tween 80/PBS (1/1/8, v/v/v)) was administered to the nude mice in 10 mg/kg group and 20 mg/kg group respectively at a dose of 10 mg/kg and a dose of 20 mg/kg via intraperitoneal injection, and 5% dextrose was administered to the nude mice in the control group at the same dosing volume as compound 13a via intraperitoneal injection.
The second group (n=28) of the nude mice was used to evaluate the effect of compound 13a after oral administration, and was further divided into three subgroups including 60 mg/kg group (n=10), 120 mg/kg group (n=10), and a control group (n=8). Compound 13a (in a normal saline solution containing 1% DMSO, 1.4% Tween 80, and 1% sodium carboxymethyl cellulose (Sigma), and serving as a vehicle) was administered to the nude mice in 60 mg/kg group and 120 mg/kg group respectively at a dose of 60 mg/kg and a dose of 120 mg/kg via tube feeding (0.22-0.26 mL of the mixture of compound 13a and the vehicle/nude mouse), and the vehicle was administered to the mice in the control group at a dose of 10 mL/kg via tube feeding.
Administration was conducted once daily for 6 consecutive days. For the first group of the nude mice, the size of the tumor on the dorsal flank was measured with calipers every 9 days for 100 consecutive days. For the second group of the nude mice, the survival rate was calculated every 10 days starting on Day 1 (i.e., the day of the […] administration) for 80 consecutive days, and the size of the tumor on the dorsal flank was measured with the calipers every 3 days for 32 consecutive days.

Values after ≈ are worked out from the molar mass of the structure shown.

Broadly, the GI50 is the concentration giving 50% growth inhibition. As to `C/C(=N\OCCN)c1ccc(Nc2c3ccccc3nc3occc23)cc1` [Compound 13a, (E)-1-(4-(furo[2,3-b]quinolin-4-ylamino)phenyl)ethanone O-2-aminoethyl oxime], the “SI MCF-7” value in [1] (GI50 MRC-5 / GI50 MCF-7) was 4.59. The activity at 4000 µg/mL in data set [1] (Homo sapiens, MCF7, 4 mg/ml, 48 hours, MTT) worked out at 66%. Besides, the activity at 20000 µg/mL in data set [1] (Homo sapiens, MCF7, 20 mg/ml, 48 hours, MTT) is -1%. Further, the GI50 worked out at 9.34 ± 0.92 µM in data set [1] (Homo sapiens, MCF7, mean±SD, read-out: GI50 MCF-7); 42.9 ± 1.05 µM in data set [2]; 24 ± 2 µM in data set [3] (Homo sapiens, 786-0, mean±SD); 11.8 ± 0.49 µM in data set [4] (Homo sapiens, mean±SD); 10.2 ± 0.9 µM in data set [5] (Homo sapiens, BT-483, mean±SD); 16.9 ± 1.88 µM in data set [6] (Homo sapiens, CE81T, mean±SD). Besides, the concentration for 50% growth inhibition (GI50) turned out to be 6.58 ± 2.99 µM in [7] (Homo sapiens, A549, mean±SD) and 0.98 ± 0.27 µM in the data set with NCI-H611 (mean±SD). The “SI RCC 786-O” value in data set [3] (versus MRC-5) stood at 1.77. Also, the “SI PC-3” value in data set [4] (versus MRC-5) is reported as 3.62. Further, in [5] (versus MRC-5), the “SI BT483” value was determined as 4.22. In [6] (versus MRC-5), the “SI CE81T” value worked out at 2.53. Besides, the “SI A549” value in data set [7] (versus MRC-5) was found to be 6.51. In addition, the “SI NCI-H611” value with NCI-H611 (versus MRC-5) was 43.72. Further, the Solubility in water in data set [8] (25±0.1° C., stirred overnight, UV-VIS) came to 63 µg/mL (≈ 175 µM). Besides, the “Solubility in water relative to compound 2” value in data set [8] (fold versus compound 2) is “about six times higher”. Moreover, the “Size of the tumor” value in the data set on NCI-H460 cells (intraperitoneal injection, 10 mg/kg and 20 mg/kg once daily for 6 days, versus control) is given as “generally grew more slowly with time”; with NCI-H460 cells (oral administration, 60 mg/kg and 120 mg/kg once daily for 6 days, versus control) it was “generally grew more slowly with time”; in the data set with NCI-H460 cells (oral administration, 120 mg/kg once daily for 6 days), “diminished in size after Day 16”. Further, the Survival rate in the data set with NCI-H460 cells (oral administration, 60 mg/kg group) is 50%; in the data set on NCI-H460 cells (oral administration, 120 mg/kg group), 50%.
